Data from patent US5451601A, “Perhydroisoindole derivatives and pharmaceutical compositions containing them” (Rhone-Poulenc Rorer S.A., priority 1991, dated 1995).

Experiments:
Type in all cases: in vivo
[1] = analgesic activity, technique of Siegmund E. et al.; conditions: po
From the text: Exp. Biol. Med., 95, 729 (1957).

[2] = test system: substance P; experiment: antagonism of the hypotension induced by substance P, technique of C. A. Maggi et al.; conditions: rats; product 1 mg/kg i.v./min for 5 min; hypotension induced by i.v. injection of substance P
From the text: Injection of substance P into animals produces hypotension. The products studied in the technique of C. A. Maggi et al., J. Auton.

[3] = test system: septide (agonist of substance P); experiment: inhibition of the increase in capillary permeability brought about by septide, technique of A. Saria et al. adapted to mice; conditions: Mus musculus, sc, septide-induced increase in capillary permeability
From the text: The study of a number of isoindole derivatives of general formula (I) according to the technique of A. Saria et al., Arch.

| Structure (SMILES) | ED50 [1] | % inhibition of hypotension [2] | ED50 [3] |
| --- | --- | --- | --- |
| O=C(Cc1ccccc1OCCCN1CCCC1)N1C[C@@H]2[C@H](F)CCC(c3ccccc3)(c3ccccc3)[C@@H]2C1 [Example 2] | 2 mg/kg | 68% | 0.3 mg/kg |
| COc1ccccc1[C@H](C)C(=O)N1C[C@@H]2[C@H](F)CCC(c3ccccc3)(c3ccccc3)[C@@H]2C1 [Example 7, (3aR,7R,7aR)-4,4-diphenyl-7-fluoro-2-[(S)-2-(2-methoxyphenyl)propionyl]perhydroisoindole] | 1.5 mg/kg | – | 0.32 mg/kg |
| CN(C)CCCOc1ccccc1CC(=O)N1C[C@@H]2[C@H](F)CCC(c3ccccc3)(c3ccccc3)[C@@H]2C1.Cl [Example 1, (3aR,7R,7aR)-2-{[2-(3-dimethylaminopropoxy)phenyl]acetyl}-4,4-diphenyl-7-fluoroperhydroisoindole hydrochloride] | 3 mg/kg | 73% | 0.7 mg/kg |
